Source: article PMC6175941, “Hydrophobic alkyl chains substituted to the 8-position of cyclic nucleotides enhance activation of CNG and HCN channels by an intricate enthalpy - entropy compensation” (Scientific Reports, 2018)

How the values were obtained:
Type in all cases: cell-based
[1] = target: T1, homotetrameric HCN2 channels (Mus musculus, UniProt O88703); experiment: Concentration-activation relationship of homotetrameric HCN2 channels, inside-out patches of Xenopus oocytes; conditions: for H (Hill coefficient) / EC50: homotetrameric HCN2 channels, mean; for EC50: pre-activation at -130 mV, instantaneous current at -100 mV
T1 construct: expressed in transfected cells; host or cells: Xenopus laevis oocytes injected with cRNA; inside-out patches
T1 sequence (O88703 1-863): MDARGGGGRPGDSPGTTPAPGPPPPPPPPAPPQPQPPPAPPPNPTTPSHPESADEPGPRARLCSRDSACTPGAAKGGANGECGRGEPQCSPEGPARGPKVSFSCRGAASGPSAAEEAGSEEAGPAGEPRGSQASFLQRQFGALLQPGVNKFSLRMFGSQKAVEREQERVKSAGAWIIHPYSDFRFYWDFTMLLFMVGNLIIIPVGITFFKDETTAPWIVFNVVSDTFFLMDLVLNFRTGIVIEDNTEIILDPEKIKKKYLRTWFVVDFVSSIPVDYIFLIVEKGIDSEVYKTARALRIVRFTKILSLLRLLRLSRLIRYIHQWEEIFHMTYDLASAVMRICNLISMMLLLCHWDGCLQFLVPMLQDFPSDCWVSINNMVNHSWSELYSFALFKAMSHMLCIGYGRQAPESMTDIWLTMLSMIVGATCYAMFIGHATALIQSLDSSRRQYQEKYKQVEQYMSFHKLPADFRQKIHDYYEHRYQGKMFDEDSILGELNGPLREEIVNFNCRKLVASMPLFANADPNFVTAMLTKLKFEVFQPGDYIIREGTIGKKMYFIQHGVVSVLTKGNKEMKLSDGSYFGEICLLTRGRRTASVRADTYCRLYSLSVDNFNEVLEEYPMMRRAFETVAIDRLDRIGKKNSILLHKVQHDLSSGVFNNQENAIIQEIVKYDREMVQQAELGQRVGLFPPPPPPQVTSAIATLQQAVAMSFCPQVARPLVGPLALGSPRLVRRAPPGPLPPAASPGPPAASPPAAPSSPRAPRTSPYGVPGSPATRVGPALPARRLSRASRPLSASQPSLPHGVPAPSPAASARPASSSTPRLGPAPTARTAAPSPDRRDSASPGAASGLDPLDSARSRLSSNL
Procedure: (§1) The subunits CNGA2 (accession No. AF126808), CNGA4 (accession No. U12623) and CNGB1b (accession No. AF068572) of rat olfactory channels as well as mouse HCN2 channels (NM008226) were subcloned in front of the T7 promoter of pGEMHEnew. The respective cRNAs were produced by using the mMESSAGE mMACHINE T7 Kit (Ambion, Austin, TX).
(§2) The oocytes were exposed to collagenase A (3 mg/ml; Roche, Grenzach-Wyhlen, Germany) for 105 min in Ca^2+-free Barth’s solution containing (in mM) 82.5 NaCl, 2 KCl, 1 MgCl2 2, and 5 Hepes, pH 7.4. Oocytes at stages IV and V were injected with 50–130 ng of cRNA encoding either CNGA2, CNGA2:CNGA4:CNGB1b (2:1:1 ratio) or HCN2 channels either manually of or by means of an injection robot (RoboInject®). The injected oocytes were incubated at 18 °C for up to 6 days in Barth’s solution containing (in mM) 84 NaCl, 1 KCl, 2.4 NaHCO3, 0.82 MgSO4, 0.41 CaCl2, 0.33 Ca(NO3)2, 7.5 TRIS, cefuroxime (4.0 µg × ml^−1), and penicillin/streptomycin (100 µg × ml^−1), pH 7.4.
(§3) Macroscopic currents were recorded from inside-out patches of the oocytes by using standard patch-clamp techniques. The patch pipettes were pulled from quartz tubing (P-2000, Sutter Instrument, Novato, USA) with an outer and inner diameter of 1.0 and 0.7 mm (VITROCOM, New Jersey, USA). The corresponding pipette resistance was 0.9–2.3 MΩ. The bath and pipette solution contained (in mM): 150 KCl, 1 EGTA, 5 Hepes (pH 7.4 with KOH) for CNG measurements. For HCN measurements the bath solution contained 100 mM KCl, 10 mM EGTA, 10 mM HEPES (pH 7.2) and 120 mM KCl, 10 mM HEPES, and 1.0 mM CaCl2 (pH 7.2) in the pipette. Recording was carried out at room temperature using an Axopatch 200B amplifier (Axon Instruments, Foster City, CA). Electrophysiology was controlled by the Patchmaster-software (HEKA Elektronik Dr. Schulze GmbH, Lambrecht, Germany). The sampling rate was 5 kHz and the filter implemented in the amplifier (4-pole Bessel) was set to 2 kHz. Measurements in HCN2 channels were generally started 3.5 min after patch excision to minimize channel run down during the measurement[14],[27],[70]. The solutions with the ligand concentrations to be tested were applied via a multi-barrel device to the patches with a flow rate of 0.8 to 1.2 ml/min.
(§4) I is the actual current amplitude and Imax the maximum current amplitude at a saturating cNMP concentration specified for each cNMP and channel. EC50 is the cNMP concentration generating the half maximum current and H the Hill coefficient.

[2] = target: T2, homotetrameric CNGA2 channels (Rattus norvegicus, UniProt Q00195); experiment: Concentration-activation relationship of homotetrameric CNGA2 channels, inside-out patches of Xenopus oocytes
T2 construct: expressed in transfected cells; host or cells: Xenopus laevis oocytes injected with cRNA; inside-out patches
T2 sequence (Q00195 1-664): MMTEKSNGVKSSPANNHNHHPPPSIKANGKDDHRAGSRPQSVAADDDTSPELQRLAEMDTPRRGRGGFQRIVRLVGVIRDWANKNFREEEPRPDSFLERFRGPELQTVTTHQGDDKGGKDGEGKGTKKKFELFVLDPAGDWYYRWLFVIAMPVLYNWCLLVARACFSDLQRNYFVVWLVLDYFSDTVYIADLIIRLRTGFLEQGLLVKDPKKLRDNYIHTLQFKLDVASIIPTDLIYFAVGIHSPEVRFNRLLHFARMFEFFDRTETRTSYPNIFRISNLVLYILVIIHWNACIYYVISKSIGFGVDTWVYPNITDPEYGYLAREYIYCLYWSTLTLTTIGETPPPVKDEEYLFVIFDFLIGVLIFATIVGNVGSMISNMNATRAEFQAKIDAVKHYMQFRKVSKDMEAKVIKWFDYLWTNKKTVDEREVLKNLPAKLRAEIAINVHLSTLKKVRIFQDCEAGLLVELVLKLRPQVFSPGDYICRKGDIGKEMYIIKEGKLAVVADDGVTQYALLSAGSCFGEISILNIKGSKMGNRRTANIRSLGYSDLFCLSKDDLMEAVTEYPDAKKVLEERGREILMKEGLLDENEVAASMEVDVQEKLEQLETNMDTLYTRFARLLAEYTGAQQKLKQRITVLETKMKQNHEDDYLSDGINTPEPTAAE
Procedure: (§5) For each cNMP derivative a complete concentration-activation relationship was recorded, and the data points were fitted with the Hill equation (equation 1) yielding the concentration of half maximum activation (EC50) and the Hill coefficient H (Fig. 1b,c).
as §1
as §2, with “Oocytes” for “The oocytes were exposed to collagenase A (3 mg/ml; Roche, Grenzach-Wyhlen, Germany) for 105 min in Ca^2+-free Barth’s solution containing (in mM) 82.5 NaCl, 2 KCl, 1 MgCl2 2, and 5 Hepes, pH 7.4. Oocytes”
as §3, §4

[3] = target: T3, heterotetrameric CNGA2:CNGA4:CNGB1b channels (Rattus norvegicus, UniProt A0A8I5ZN27+Q00195+Q64359); experiment: Concentration-activation relationship of heterotetrameric CNGA2:CNGA4:CNGB1b channels, inside-out patches of Xenopus oocytes
T3 construct: expressed in transfected cells; host or cells: Xenopus laevis oocytes co-injected with cRNAs (2:1:1); inside-out patches
T3 sequence (Q64359 whole entry, one chain of several): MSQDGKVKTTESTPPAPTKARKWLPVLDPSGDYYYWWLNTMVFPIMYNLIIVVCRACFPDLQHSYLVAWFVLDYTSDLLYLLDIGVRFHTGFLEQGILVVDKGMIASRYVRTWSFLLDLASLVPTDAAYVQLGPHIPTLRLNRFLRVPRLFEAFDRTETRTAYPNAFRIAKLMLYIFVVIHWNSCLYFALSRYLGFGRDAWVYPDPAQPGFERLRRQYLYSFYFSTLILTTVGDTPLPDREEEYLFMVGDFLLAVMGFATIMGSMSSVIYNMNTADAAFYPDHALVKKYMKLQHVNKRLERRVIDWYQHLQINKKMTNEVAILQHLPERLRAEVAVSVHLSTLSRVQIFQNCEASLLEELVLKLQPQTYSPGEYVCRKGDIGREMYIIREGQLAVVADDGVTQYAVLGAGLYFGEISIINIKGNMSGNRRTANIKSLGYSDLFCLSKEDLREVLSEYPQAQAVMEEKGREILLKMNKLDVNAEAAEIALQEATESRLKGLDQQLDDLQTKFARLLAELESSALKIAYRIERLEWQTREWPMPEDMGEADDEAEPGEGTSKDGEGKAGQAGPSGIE
T3 sequence (A0A8I5ZN27 1-858 isoform A0A8I5ZN27-2, one chain of several): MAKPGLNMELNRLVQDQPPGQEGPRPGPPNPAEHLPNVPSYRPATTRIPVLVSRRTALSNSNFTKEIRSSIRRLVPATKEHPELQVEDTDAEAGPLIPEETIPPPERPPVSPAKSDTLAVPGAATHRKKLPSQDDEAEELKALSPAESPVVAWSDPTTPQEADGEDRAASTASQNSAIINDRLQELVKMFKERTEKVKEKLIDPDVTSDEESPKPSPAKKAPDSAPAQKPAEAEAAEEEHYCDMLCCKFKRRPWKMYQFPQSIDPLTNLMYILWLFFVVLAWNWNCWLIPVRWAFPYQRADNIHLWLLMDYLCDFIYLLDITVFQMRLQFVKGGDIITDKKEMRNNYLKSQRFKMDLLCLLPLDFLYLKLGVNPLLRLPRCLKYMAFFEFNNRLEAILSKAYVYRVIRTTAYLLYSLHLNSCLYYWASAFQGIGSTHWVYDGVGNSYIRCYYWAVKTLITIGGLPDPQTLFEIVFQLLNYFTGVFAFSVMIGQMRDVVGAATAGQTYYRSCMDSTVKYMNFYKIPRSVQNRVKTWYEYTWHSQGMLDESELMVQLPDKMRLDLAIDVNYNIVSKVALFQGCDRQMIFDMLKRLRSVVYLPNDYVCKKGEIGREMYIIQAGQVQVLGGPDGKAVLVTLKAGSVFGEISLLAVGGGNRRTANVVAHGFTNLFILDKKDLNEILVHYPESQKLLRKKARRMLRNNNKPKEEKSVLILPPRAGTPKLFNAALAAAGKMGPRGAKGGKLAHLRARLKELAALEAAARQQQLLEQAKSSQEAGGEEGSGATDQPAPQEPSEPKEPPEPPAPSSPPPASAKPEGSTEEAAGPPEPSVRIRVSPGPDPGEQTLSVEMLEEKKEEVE
Procedure: as §5, §1
as §2, with “Oocytes” for “The oocytes were exposed to collagenase A (3 mg/ml; Roche, Grenzach-Wyhlen, Germany) for 105 min in Ca^2+-free Barth’s solution containing (in mM) 82.5 NaCl, 2 KCl, 1 MgCl2 2, and 5 Hepes, pH 7.4. Oocytes”
as §3, §4

[4] = fit of the concentration-activation relationship shown in Fig. 1b, CNGA2 channels
[5] = homotetrameric CNGA2 channels, late current at +10 mV, mean
[6] = homotetrameric CNGA2 channels, mean
[7] = fit of the concentration-activation relationship shown in Fig. 1c, CNGA2:CNGA4:CNGB1b channels
[8] = heterotetrameric CNGA2:CNGA4:CNGB1b channels, late current at +10 mV, mean
[9] = heterotetrameric CNGA2:CNGA4:CNGB1b channels, mean
[10] = CNGA2 channels, numeric mean values of box plots (Fig. 2a,b, Fig. 3) and text

## Nc1ncnc2c1ncn2C1OC2COP(=O)(O)OC2C1O (centres unmarked) [1A, cAMP, reference compound]
[1]; individual experiment, Fig. 5b, HCN2 channels
  H: 1.28

## Nc1nc2c(ncn2C2OC3COP(=O)(O)OC3C2O)c(=O)[nH]1 (centres unmarked) [1G, cGMP, reference compound]
[2]; [4]
  EC50: 1.47 µM
  H: 2.52
[2]; [5]
  EC50: 1.8 µM
[2]; [6]
  H (Hill coefficient): 2.6
[3]; [7]
  EC50: 1.24 µM
  H: 2.09
[3]; [8]
  EC50: 1.3 µM
[3]; [9]
  H (Hill coefficient): 2.5

## NCCSc1nc2c(N)ncnc2n1C1OC2COP(=O)(O)OC2C1O (centres unmarked) [2A, 8-AET-cAMP]
[2]; CNGA2 channels
  agonist type: partial agonist
[2]; [10]
  EC50: 128 µM
[2]; [6]
  H (Hill coefficient): 1.8
[3]; [8]
  EC50: 13.3 µM

## NCCSc1nc2c(=O)[nH]c(N)nc2n1C1OC2COP(=O)(O)OC2C1O (centres unmarked) [2G, 8-AET-cGMP]
[2]; [10]
  EC50: 0.83 µM
[2]; [6]
  H (Hill coefficient): 2.4
[3]; [8]
  EC50: 1.5 µM
[3]; [9]
  H (Hill coefficient): 1.8

## CC(=O)NCCSc1nc2c(N)ncnc2n1C1OC2COP(=O)(O)OC2C1O (centres unmarked) [3A, 8-(Ac)AET-cAMP]
[2]; [10]
  EC50: 9.9 µM
[2]; [6]
  H (Hill coefficient): 2.3
[3]; [8]
  EC50: 4.1 µM
[3]; [9]
  H (Hill coefficient): 1.8
[1]
  H (Hill coefficient): 1.7
  EC50: 0.0706 µM

## CC(=O)NCCSc1nc2c(=O)[nH]c(N)nc2n1C1OC2COP(=O)(O)OC2C1O (centres unmarked) [3G, 8-(Ac)AET-cGMP]
[2]; [10]
  EC50: 0.17 µM
[2]; [6]
  H (Hill coefficient): 1.8
[3]; [8]
  EC50: 0.28 µM
[3]; [9]
  H (Hill coefficient): 2.0

## NCCCCCCSc1nc2c(N)ncnc2n1C1OC2COP(=O)(O)OC2C1O (centres unmarked) [4A, 8-AHT-cAMP]
[2]; [5]
  EC50: 3.1 µM
[2]; [6]
  H (Hill coefficient): 2.3
[3]; [8]
  EC50: 1.4 µM
[3]; [9]
  H (Hill coefficient): 2.5

## NCCCCCCSc1nc2c(=O)[nH]c(N)nc2n1C1OC2COP(=O)(O)OC2C1O (centres unmarked) [4G, 8-AHT-cGMP]
[2]; [5]
  EC50: 0.09 µM
[2]; [6]
  H (Hill coefficient): 2.5
[3]; [8]
  EC50: 0.62 µM
[3]; [9]
  H (Hill coefficient): 1.3

## CC(=O)NCCCCCCSc1nc2c(N)ncnc2n1C1OC2COP(=O)(O)OC2C1O (centres unmarked) [5A, 8-(Ac)AHT-cAMP]
[2]; [5]
  EC50: 1.4 µM
[2]; [6]
  H (Hill coefficient): 3.1
[3]; [8]
  EC50: 0.95 µM
[3]; [9]
  H (Hill coefficient): 2.5
[1]
  H (Hill coefficient): 0.8
  EC50: 0.0197 µM
